# Measured values as given in patent publication US20110172217A1, “RING-FUSED MORPHOLINE DERIVATIVE HAVING PI3K-INHIBITING ACTIVITY” (Shionogi & Co., Ltd., priority 2008, published 2011).
# Molecular target: PI-3 kinase γ (Homo sapiens, UniProt P48736)
# Assay: PI3Kγ inhibitory activity, PI3-kinase HTRF assay (inhibition ratio)
# Assay type: biochemical
# Conditions: 0.5 h, compound at 50 μmol/L
# Protocol: For each compound synthesized in the above Examples, PI3Kγ inhibitory activity was measured.
# The PI3Kγ inhibitory activity of a compound was evaluated using PI3-kinase HTRF™ assay (Millipore) according to the following procedure:
# To each well of a testing plate, 5 μL of a compound solution containing 10% DMSO (200 μmol/L or 40 μmol/L as the concentration of the compound), 5 μL of a substrate solution (40 μmol/L phosphatidylinositol (4,5)-bisphosphate, 20 mmol/L MgCl2, 10 mmol/L DTT), and 5 μL of a enzyme solution (80 μg/mL PI-3 kinase γ, 10 mmol/L MgCl2, 5 mmol/L DTT) were added, and then allowed to stand for 10 minutes.
# Then, 5 μL of a reaction solution (40 μmol/L ATP, 10 mmol/L MgCl2, 5 mmol/L DTT) was added thereto. After reacting for 30 minutes at room temperature, 5 μL of a solution containing EDTA and biotinylated phosphatidylinositol (3,4,5)-triphosphate were added to quench the reaction.
# 5 μL of a detection reagent containing a europium-labeled anti-GST antibody, the GST-tagged PH domain, and allophycocyanin-labeled streptavidin was added thereto. After 18 hours, HTRF (excitation wavelength: 330 nm, measured wavelengths: 620 nm and 665 nm) was measured.
# HTRF ratio was defined as the value obtained by dividing the amount of fluorescence obtained at the measured wavelength 665 nm by the amount of fluorescence obtained at 620 nm. The HTRF ratio in the absence of a compound was defined as 100% activity and the HTRF ratio in the absence of PI-3 kinase γ was defined as 0% activity to calculate an inhibition ratio which was defined as the PI3Kγ inhibitory activity of a compound at 50 μmol/L or 10 μmol/L.
# Chain of PI-3 kinase γ (P48736 whole entry): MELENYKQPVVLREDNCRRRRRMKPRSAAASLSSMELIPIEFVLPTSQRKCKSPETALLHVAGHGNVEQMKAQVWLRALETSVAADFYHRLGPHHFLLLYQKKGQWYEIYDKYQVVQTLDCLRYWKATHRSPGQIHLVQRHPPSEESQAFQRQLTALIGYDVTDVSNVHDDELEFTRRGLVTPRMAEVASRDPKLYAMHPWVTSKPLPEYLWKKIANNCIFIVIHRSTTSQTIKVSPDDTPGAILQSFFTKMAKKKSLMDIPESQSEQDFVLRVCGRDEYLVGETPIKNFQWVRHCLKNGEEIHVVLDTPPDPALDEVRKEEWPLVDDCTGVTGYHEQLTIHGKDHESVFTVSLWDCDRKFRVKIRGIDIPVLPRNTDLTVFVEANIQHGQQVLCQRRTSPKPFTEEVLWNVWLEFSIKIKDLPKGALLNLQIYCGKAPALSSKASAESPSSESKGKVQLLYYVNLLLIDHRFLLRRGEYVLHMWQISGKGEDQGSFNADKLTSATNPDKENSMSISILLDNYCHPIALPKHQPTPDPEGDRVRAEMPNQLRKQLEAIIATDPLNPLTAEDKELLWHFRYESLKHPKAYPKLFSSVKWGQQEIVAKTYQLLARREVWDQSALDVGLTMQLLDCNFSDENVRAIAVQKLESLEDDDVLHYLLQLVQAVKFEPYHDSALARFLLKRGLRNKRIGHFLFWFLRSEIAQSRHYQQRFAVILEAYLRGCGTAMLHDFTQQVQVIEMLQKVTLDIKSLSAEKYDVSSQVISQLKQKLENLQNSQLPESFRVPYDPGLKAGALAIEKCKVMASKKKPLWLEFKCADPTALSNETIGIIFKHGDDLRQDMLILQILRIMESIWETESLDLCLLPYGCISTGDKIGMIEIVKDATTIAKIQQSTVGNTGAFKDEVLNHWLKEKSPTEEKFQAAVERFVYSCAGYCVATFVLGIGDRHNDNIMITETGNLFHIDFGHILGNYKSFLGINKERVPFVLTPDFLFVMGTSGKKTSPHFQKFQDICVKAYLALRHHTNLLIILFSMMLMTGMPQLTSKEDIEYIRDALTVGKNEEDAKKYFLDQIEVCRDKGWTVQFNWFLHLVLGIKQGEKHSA
row,Structure (SMILES),inhibition at 50 µM
1,O=C(Nc1ccccc1)N1CCOc2ccc(-c3cncnc3)nc21 [Compound I-106],≥ 95%
2,NCCOc1cccc(Nc2ccc3c(n2)N(C(=O)Nc2ccccc2)CCO3)c1 [Compound I-222],≥ 95%
3,CC(=O)Nc1ccc2c(n1)N(C(=O)Nc1ccccc1)CCO2 [Compound I-174],79%
4,Nc1ccc2c(n1)N(C(=O)Nc1ccccc1)CCO2 [Compound I-108],88%
5,O=C(O)CCCc1ccc2c(n1)N(C(=O)Nc1ccccc1)CCO2 [Compound I-95],≥ 95%
6,Nc1ccc(-c2ccc3c(n2)N(C(=O)Nc2ccccc2)CCO3)cn1 [Compound I-185],76%
7,CC(C)(C)OC(=O)CC(=O)Nc1cnc2c(c1)OCCN2C(=O)Nc1ccccc1 [Compound I-160],75%
8,O=C(Nc1ccccc1)N1CCOc2ccc(-c3ncco3)nc21 [Compound I-84],72%
9,CC(C)(C)OC(=O)c1ccc(Nc2ccc3c(n2)N(C(=O)Nc2ccccc2)CCO3)cc1 [Compound I-143],≥ 95%
10,O=C(O)CNC(=O)c1ccc(Nc2ccc3c(n2)N(C(=O)Nc2ccccc2)CCO3)cc1 [Compound I-278],≥ 95%
11,NCCOc1ccc(C(=O)O)cc1NC(=O)c1ccc2c(n1)N(C(=O)Nc1ccccc1)CCO2 [Compound I-118],≥ 95%
12,O=C(Nc1ccccc1)N1CCOc2ccc(-c3ccncc3)nc21 [Compound I-107],≥ 95%
13,COC(=O)c1ccccc1Nc1ccc2c(n1)N(C(=O)Nc1ccccc1)CCO2 [Compound I-141],82%
14,O=C(O)c1ccc(-c2ccc3c(n2)N(C(=O)Nc2ccncc2)CCO3)cc1 [Compound I-209],90%
15,O=C(O)c1ccc(NC(=O)c2ccc3c(n2)N(C(=O)Nc2ccccc2)CCO3)cc1 [Compound I-40],80%
16,O=C(Nc1ccccc1)N1CCOc2ccc(N3CCOCC3)nc21 [Compound I-207],81%
17,CC(C)(C)OC(=O)COc1ccccc1Nc1ccc2c(n1)N(C(=O)Nc1ccccc1)CCO2 [Compound I-242],≥ 95%
18,CC(C)(C)OC(=O)n1c(-c2cnc3c(c2)OCCN3C(=O)Nc2ccccc2)cc2ccccc21 [Compound I-283],85%
19,O=C(Nc1ccccc1)N1CCOc2cc(-c3ccnn3C3CCCCO3)cnc21 (centres unmarked) [Compound I-250],91%
20,CC(C)(C)OC(=O)COc1cccc(Nc2ccc3c(n2)N(C(=O)Nc2ccccc2)CCO3)c1 [Compound I-233],≥ 95%
21,CCCc1ccc2c(n1)N(C(=O)Nc1ccccc1)CCO2 [Compound I-90],72%
22,O=C(O)c1cccc(C(=O)Nc2ccc3c(n2)N(C(=O)Nc2ccccc2)CCO3)c1 [Compound I-124],76%
23,O=C(NC1CCCCC1)N1CCOc2cccnc21 [Compound I-17],88%
24,O=C(O)c1cccc(Nc2ccc3c(n2)N(C(=O)Nc2ccccc2)CCO3)c1 [Compound I-147],≥ 95%
25,O=C(O)CC(=O)Nc1ccc2c(n1)N(C(=O)Nc1ccccc1)CCO2 [Compound I-123],≥ 95%

row,Structure (SMILES),inhibition at 50 µM
1,CC(C)(C)OC(=O)NCCOc1cc(C(=O)O)ccc1Nc1ccc2c(n1)N(C(=O)Nc1ccccc1)CCO2 [Compound I-226],≥ 95%
2,Cc1n[nH]cc1-c1ccc2c(n1)N(C(=O)Nc1ccccc1)CCO2 [Compound I-188],≥ 95%
3,CC(C)(C)OC(=O)N1CCN(c2cnc3c(c2)OCCN3C(=O)Nc2ccccc2)CC1 [Compound I-244],80%
4,O=C(Nc1ccccc1)N1CCOc2cc(-c3cn[nH]c3)cnc21 [Compound I-251],≥ 95%
5,NC(=O)c1ccc(-c2ccc3c(n2)N(C(=O)Nc2ccccc2)CCO3)cc1 [Compound I-69],73%
6,O=C(O)c1cccc(-c2ccc3c(n2)N(C(=O)Nc2ccccc2)CCO3)c1 [Compound I-104],≥ 95%
7,CC(C)(C)OC(=O)N1CCC(Nc2ccc3c(n2)N(C(=O)Nc2ccccc2)CCO3)CC1 [Compound I-231],≥ 95%
8,Cn1cc(-c2ccc3c(n2)N(C(=O)Nc2ccccc2)CCO3)cn1 [Compound I-190],≥ 95%
9,O=C(Nc1ccccc1)N1CCOc2cc(N3CCNCC3)cnc21 [Compound I-246],≥ 95%
10,COc1ccc(-c2ccc3c(n2)N(C(=O)Nc2ccccc2)CCO3)cc1 [Compound I-98],73%
11,CC(C)(C)OC(=O)NCCOc1cccc(Nc2ccc3c(n2)N(C(=O)Nc2ccccc2)CCO3)c1 [Compound I-219],≥ 95%
12,CN(c1ccc(C(=O)O)cc1)c1ccc2c(n1)N(C(=O)Nc1ccccc1)CCO2 [Compound I-284],82%
13,COC(=O)c1cccc(Nc2ccc3c(n2)N(C(=O)Nc2ccccc2)CCO3)c1 [Compound I-232],≥ 95%
14,CNC(=O)c1ccc(-c2ccc3c(n2)N(C(=O)Nc2ccccc2)CCO3)cc1 [Compound I-70],71%
15,CC(C)(C)OC(=O)CNC(=O)c1ccc(Nc2ccc3c(n2)N(C(=O)Nc2ccccc2)CCO3)cc1 [Compound I-273],76%
16,O=C(O)c1ccc(-c2ccc3c(n2)N(C(=O)Nc2ccccc2)CCO3)cc1 [Compound I-51],93%
17,COCOc1ccc(C(=O)OC)cc1Nc1ccc2c(n1)N(C(=O)Nc1ccccc1)CCO2 [Compound I-179],79%
18,O=C(O)c1ccc(C(=O)Nc2ccc3c(n2)N(C(=O)Nc2ccccc2)CCO3)cc1 [Compound I-125],≥ 95%
19,CC1CN(C(=O)Nc2ccccc2)c2nc(-c3ccc(C(=O)O)cc3)ccc2O1 (centres unmarked) [Compound I-290],86%
20,CN1CCOc2cc(-c3ccc4c(n3)N(C(=O)Nc3ccccc3)CCO4)ccc21 [Compound I-77],82%
21,CC(C)(C)OC(=O)N1CCN(c2cnc3c(c2)OCCN3C(=O)Nc2ccccc2)CC1C(=O)O (centres unmarked) [Compound I-245],≥ 95%
22,O=C(O)CCNC(=O)c1cnc2c(c1)OCCN2C(=O)Nc1ccccc1 [Compound I-307],92%
23,O=C(Nc1ccccc1)N1CCOc2ccc(-c3ccn[nH]3)nc21 [Compound I-187],≥ 95%
24,CC1(Cc2ccccc2)SC(N2CCOc3cccnc32)=NC1=O (centres unmarked) [Compound I-4],84%

# Continued, values first:
row,inhibition at 50 µM,Structure (SMILES)
1,71%,O=C(Nc1ccccc1)N1CCOc2cc(-c3cc[nH]n3)cnc21 [Compound I-269]
2,≥ 95%,O=C(O)COc1ccc(Nc2cnc3c(c2)OCCN3C(=O)Nc2ccccc2)cc1 [Compound I-252]
3,81%,CCCCNS(=O)(=O)c1cccc(Nc2cnc3c(c2)OCCN3C(=O)Nc2ccccc2)c1 [Compound I-311]
4,78%,C#Cc1cccc(Nc2cnc3c(c2)OCCN3C(=O)Nc2ccccc2)c1 [Compound I-314]
5,81%,O=C(Nc1ccccc1)N1CCOc2ccc(Nc3ccccc3)nc21 [Compound I-144]
6,78%,O=C(Nc1ccccc1)N1CCOc2cc(Nc3ccc(Oc4ccccc4)cc3)cnc21 [Compound I-322]
7,89%,CNC(=O)c1cnc2c(c1)OCCN2C(=O)Nc1ccccc1 [Compound I-303]
8,≥ 95%,NCCOc1ccc(Nc2ccc3c(n2)N(C(=O)Nc2ccccc2)CCO3)cc1 [Compound I-221]
9,≥ 95%,N#Cc1ccc(Nc2cnc3c(c2)OCCN3C(=O)Nc2ccccc2)cc1 [Compound I-318]
10,≥ 95%,O=C(Nc1ccccc1)N1CCOc2cc(-c3ccc[nH]3)cnc21 [Compound I-274]
11,93%,CC(C)(C)NC(=O)c1ccccc1Nc1cnc2c(c1)OCCN2C(=O)Nc1ccccc1 [Compound I-315]
12,≥ 95%,O=C(Nc1ccccc1)N1CCOc2ccc(Nc3ccncc3)nc21 [Compound I-182]
13,≥ 95%,O=C(Nc1ccccc1)N1CCOc2cc(NCc3ccccc3)cnc21 [Compound I-131]
14,92%,Cc1ccc(Nc2cnc3c(c2)OCCN3C(=O)Nc2ccccc2)cc1F [Compound I-319]
15,89%,O=C(Nc1ccccc1)N1CCOc2cc(Nc3ccc(S(=O)(=O)N4CCOCC4)cc3)cnc21 [Compound I-323]
16,86%,COC(=O)c1ccc(Nc2cnc3c(c2)OCCN3C(=O)Nc2ccccc2)cc1OC [Compound I-327]
17,≥ 95%,CCN(CC)c1ccc(Nc2cnc3c(c2)OCCN3C(=O)Nc2ccccc2)cc1 [Compound I-310]
18,≥ 95%,O=C(O)c1ccccc1Nc1cnc2c(c1)OCCN2C(=O)Nc1ccccc1 [Compound I-137]
19,90%,O=C(Nc1ccccc1)N1CCOc2cc(Nc3ccc(F)cc3Cl)cnc21 [Compound I-309]
20,≥ 95%,CC(C)(C)OC(=O)COc1ccc(Nc2cnc3c(c2)OCCN3C(=O)Nc2ccccc2)cc1 [Compound I-237]
21,92%,COc1ccc(Nc2cnc3c(c2)OCCN3C(=O)Nc2ccccc2)cc1 [Compound I-313]
22,77%,COC(=O)c1ccc(N(C)c2cnc3c(c2)OCCN3C(=O)Nc2ccccc2)cc1 [Compound I-243]
